Experiments:
Assay type in all cases: in vivo
Avena sativa = assay: Herbicidal post-emergence action (Example A); conditions: 320 g of a.i./ha, rated visually after about 3 weeks, 100% = plants have died
Method: (§1) Seeds of monocotyledonous and dicotyledonous weed and crop plants are placed into sandy loam in wood fibre pots, covered with soil and cultivated in a greenhouse under good growth conditions. 2-3 weeks after sowing, the test plants are treated at the one-leaf stage. The test compounds, formulated as wettable powders (WP), are, in various dosages with a water application rate of 600 l/ha (converted), with 0.2% of wetting agent added, sprayed onto the green parts of the plants. After the test plants were kept in the greenhouse under optimum growth conditions for about 3 weeks, the effect of the preparations is rated visually in comparison to untreated controls (herbicidal effect in percent (%): 100% effect=the plants have died, 0% effect=like control plants).

Lolium = assay: Herbicidal post-emergence action (Example A); conditions: 320 g of a.i./ha, rated visually after about 3 weeks, 100% = plants have died
Method: as §1

Setaria = assay: Herbicidal post-emergence action (Example A); conditions: 320 g of a.i./ha, rated visually after about 3 weeks, 100% = plants have died
Method: as §1

Summer barley = assay: Herbicidal post-emergence action with use of safeners (Example B), crop plant compatibility; conditions: without safener, rated 3-4 weeks after treatment
Method: Seeds of monocotyledonous and dicotyledonous weed and crop plants are placed into sandy loam in wood fibre pots or in plastic pots, covered with soil and cultivated in a greenhouse, during the vegetation period also outdoors outside of the greenhouse, under good growth conditions. 2-3 weeks after sowing, the test plants are treated at the one- to three-leaf stage. The test compounds, formulated as wettable powders (WP) or emulsifiable concentrates (EC) are, in various dosages with a water application rate of 300 l/ha (converted), with wetting agent (0.2 to 0.3%) added, sprayed onto the plants and the surface of the soil. 3-4 weeks after the treatment of the test plants, the effect of the preparations is rated visually in comparison to untreated controls (herbicidal effect in percent (%): 100% effect=the plants have died, 0% effect=like control plants). […]

## CCc1cc(C)cc(C)c1C1=C(OC(=O)COC)C2(CCC(OC)CC2)NC1=O (centres unmarked) [Ex. I-b-1]
Avena sativa
  herbicidal effect in percent, Avena sativa: 100%
Lolium
  herbicidal effect in percent, Lolium: 100%
Setaria
  herbicidal effect in percent, Setaria: 90%
Summer barley; 12.5 g of a.i./ha
  Summer barley observed (%): 65%
Summer barley; 25 g of a.i./ha
  Summer barley observed (%): 93%

From US7727933B2, “2-ethyl-4,6-dimethyl-phenyl-substituted spirocyclic tetramic acid derivatives” (Bayer CropScience AG, priority 2003, dated 2010)
